Assay results taken from patent US20060094674A1, “Combination of mtor inhibitor and a tyrosine kinase inhibitor for the treatment of neoplasms” (priority 2002, published 2006).
Like-named read-outs stand apart in the source and are kept apart here.

Assays:
[1] = system: Ba/F-FLT3-ITD F691I cells; details: 48 hours; PKC412 10 nM alone; two-drug combinations at indicated concentrations
Method: (§3) Cell proliferation was measured by a [^3H]-thymidine incorporation assay (see FIG. 6C).

[2] = system: BCR/ABL-transformed primary B-lymphoblast cells; details: 24 hours, Imatinib 1 μM, Rapamycin 10 nM; for % of viable cells in phase: G1 / % of viable cells in phase: G2/M / % of viable cells in phase: S / Total % Apoptotic: UO126 5 μM; for Total % Apoptotic: sub-G1 DNA content
Method: For cell cycle and apoptosis assays, live cells from randomly growing BCR/ABL-transformed B-lymphoblasts were isolated using Histopaque (Sigma). After washing twice, the cells were resuspended in regular growth medium (RPMI-containing 20% FCS and 50 μM 2-mercaptoethanol), exposed to inhibitors at the indicated concentrations for 24 hours, harvested and fixed in 70% ethanol, for 3 hours at −20 C. Fixed cells were stained with propidium iodide, and cell cycle parameters were analyzed by using FACScan and Modfit LT software.
3 million cells in media as described above and treated with the indicated drugs or left untreated for 24 hours, were fixed, stained with propidium iodide and subject to flow cytometry for cell cycle analysis.

p70 S6K [3] = details: rapamycin 0.5-5 nM; 18 hours
Method: (§1) Cells were lysed in a buffer containing Tris-HCl (50 mM, pH 8.0), NaCl (150 mM), NP40 (1% v/v), NaF (10 mM), 2 mM sodium orthovanadate and a cocktail of protease inhibitors, as described previously (Gu et al., Mol. Cell. Biol. 20:7109 (2000)). Cell lysates containing equivalent amounts of protein ([…]) were loaded and separated by SDS-PAGE. Immunoblotting was performed using phospho-specific antibodies reactive with Thr389 of p70 S6K, Ser65 of 4E-BP1 or Thr202/Tyr204 of p44/42 Erk (Cell Signaling Technology, Beverly, Ma.). Detection was by enhanced chemiluminescence (ECL). To control for equal loading, blots were reprobed with antibodies that detect total Erk2 or p70 S6K (Santa Cruz Biotechnology).
(§2) Cell lysates were prepared and equal amounts (50 μg) of protein were resolved by SDS-PAGE followed by immunoblot analysis with the indicated phospho-specific antibodies. To control for loading, the blots were stripped and reprobed with anti-Erk2 antibodies.

Erk1/2 kinases [4] = details: 18 hours; indicated concentrations
Method: as §1, §2

4E-BP1 [5] = assay: Immunoblot of 4E-BP1 phosphorylation in Ba/F-FLT3-ITD cells; assay type: cell-based
Method: as §1
The blots were reprobed for p70 S6 kinase and Erk2, respectively, to ensure equivalent loading.

K562 cells = assay: [3H]-thymidine proliferation assay, K562 cells; assay type: cell-based, human; details: rapamycin alone, 5 nM; 60 hours
Erk1/2 kinases [6] = details: 18 hours; indicated concentrations; remark: listed apart in the source
Method: as §1, §2

[7] = system: PTEN-positive human prostate cancer cells (CWR22); assay: Proliferation (cell number, hemocytometer) of CWR22 cells; assay type: cell-based; details: rapamycin at indicated concentrations alone or with Imatinib 2 μg/ml; 7 days
Method: PTEN-positive human prostate cancer cells (CWR22) were seeded at 30,000 cells per 6-well cluster (35 mm plate). […] Media was changed every 2 days with fresh drugs. After 7 days, cell number was determined by hemocytometer (see FIG. 9).

[8] = system: PTEN-negative human prostate cancer cells (LnCaP); assay: Proliferation (cell number, hemocytometer) of LnCaP cells; assay type: cell-based; details: rapamycin at indicated concentrations alone or with Imatinib 2 μg/ml; 7 days
Method: PTEN-negative human prostate cancer cells (LnCaP) were seeded at 30,000 cells per 6-well cluster (35 mm plate). […] Media was changed every 2 days with fresh drugs. After 7 days, cell number was determined by hemocytometer (see FIG. 10).

Ba/F-BCR/ABL WT cells = details: rapamycin 5 nM; 48 hours of exposure
4E-BP1 [9] = details: Imatinib 0.5-4 μM or rapamycin 5 nM alone, or combined
Method: as §1

p70 S6K [10] = system: p70 S6K
Method: as §1, §2

[11] = system: Ba/F-FLT3-ITD F691I cells
Method: as §3

Ba/F-BCR/ABL T315I cells = assay: [3H]-thymidine proliferation assay, Imatinib-resistant Ba/F-BCR/ABL T315I cells; details: 48 hours
[12] = achieved in transplant patients; cited from earlier work
[13] = system: BCR/ABL-transformed primary B lymphoblasts; details: 24 hours; rapamycin 0.25-10 nM alone; Imatinib 0.25-4 μM alone or in combination with rapamycin 2 nM
[14] = system: murine BCR/ABL disease model; assay: Survival in mouse model of CML (BCR/ABL bone marrow transplantation); assay type: in vivo, BALB/C mice
Method: BALB/C donor mice were primed with intraperitoneal injection of 5′ fluorouracil (150 mg/kg). After 5 days, bone marrow cells were collected and transduced with MSCV p210 (BCR/ABL)-IRES-GFP viruses by two rounds of spinfection. After second round of transduction, cells were resuspended in Hanks balanced salt solution and injected (1×10^6 cells/0.5 ml) into the lateral tail vein of lethally irradiated (2×450 cGy) female recipient BALB/C mice. […] All animals in the trial received two gavage treatments and one IP treatment per 24 hours. Treatment was started from day 9 after bone marrow transplantation (BMT) and continued until the mice died. The log rank statistics were used to attach a significance level to the difference in the survival curves.
These mice were censored from the statistical analysis of survival. Peripheral blood was collected from the retroorbital cavity using a heparinized glass capillary. Blood smears were stained with Wright and Giemsa. Manual and automated (ADIVA 120 Hematology system, Bayer) total and differential blood cell counts were performed, as well as histopathologic exam of relevant organs (spleen, liver, heart, lungs, intestine, hindlimb bones, and kidneys). […]

[15] = system: bone marrow cells transduced with BCR/ABL-expressing retroviruses; assay: BCR/ABL-evoked myeloid colony formation assay; assay type: cell-based, mice; details: rapamycin 2 nM, Imatinib 0.5 μM, UO126 2 μM alone, or all three combined; 10 days

With CO[C@@H]1[C@H](N(C)C(=O)c2ccccc2)C[C@H]2O[C@]1(C)n1c3ccccc3c3c4c(c5c6ccccc6n2c5c31)C(=O)NC4 [PKC412] the “effect on cell proliferation” value [1] was “almost no effect”.

For Rapamycin, the “% of viable cells in phase: G1” value [2] was 79.9%, the “% of viable cells in phase: G2/M” value [2] was 1.8% and the “% of viable cells in phase: S” value [2] was 18.3%. The “Total % Apoptotic” value [2] was 8.6%, the “effect on cell cycle and apoptosis” value ([2]; alone or combined) was “G1 arrest, but no significant apoptosis” and the “inhibition of p70 S6K activation” value (p70 S6K [3]) was “almost completely inhibited activation of p70 S6K”. For the same molecule, the “inhibition of Erk activation” value (Erk1/2 kinases [4]) was “did not inhibit Erk activation”, the “resistance of 4E-BP1 phosphorylation to rapamycin relative to p70 S6K” value (4E-BP1 [5]) was over 10 fold and the “inhibition of [3H]-thymidine incorporation” value (K562 cells) was about 25%. For the same molecule, the “inhibition of Erk activation” value (Erk1/2 kinases [6]) was “did not inhibit Erk activation”, the “inhibitory effect on proliferation of prostate cancer cells” value [7] was “significant inhibitory effect on proliferation” and the “inhibitory effect on proliferation of prostate cancer cells” value [8] was “significant inhibitory effect on proliferation”. The inhibition of proliferation (Ba/F-BCR/ABL WT cells) was about 60%, the “inhibition of 4E-BP1 phosphorylation” value (4E-BP1 [9]) was “partial inhibition of 4E-BP1phosphorylation” and the “inhibition of p70 S6K phosphorylation” value (p70 S6K [10]; rapamycin 5 nM) was “totally inhibited p70 S6K phosphorylation”. For the same molecule, the “inhibition of p70 S6K activation” value (p70 S6K [10]; rapamycin 0.5-5 nM, 18 hours) was “almost completely inhibited activation of p70 S6K”, the inhibition [11] was 68% and the inhibition of proliferation (Ba/F-BCR/ABL T315I cells; rapamycin 5 nM alone) was “about 70%”. The typical serum levels [12] was 5 to 15 nM, the “inhibition of cell proliferation ([3H]-thymidine incorporation)” value [13] was “inhibited the proliferation of these cells at doses significantly below typical serum levels” and the “survival versus double placebo, p (log rank)” value ([14]; Rapamycin 7.0 mg/kg/day intraperitoneal or Imatinib 70 mg/kg/day oral gavage, each plus placebo) was 0.04. For the same molecule, the survival ([14]; Rapamycin 7.0 mg/kg/day intraperitoneal, Imatinib 70 mg/kg/day oral gavage, from day 9 after BMT) was “survived longer than those treated with double placebo”.

With N#CC(=C(/N)Sc1ccccc1N)/C(C#N)=C(/N)Sc1ccccc1N [UO126] the “inhibition of BCR/ABL-evoked myeloid colony formation” value [15] was 16%, the “% of viable cells in phase: G1” value [2] was 44.6% and the “% of viable cells in phase: G2/M” value [2] was 3.8%. For the same molecule, the “% of viable cells in phase: S” value [2] was 51.6%, the “Total % Apoptotic” value [2] was 4.6% and the inhibition of proliferation (Ba/F-BCR/ABL T315I cells; UO126 5 μM, Imatinib 0.5 μM, rapamycin 5 nM, alone or in combinations) was “only modest inhibitory effects”.
